Results taken from patent US20190119284A1, “ErbB Inhibitors and Uses Thereof” (The Regents of the University of California, priority 2016, published 2019).

Columns and labels:
Type in all cases: biochemical
Settings in all cases: for inhibition at 1 µM: compound at 1 μM
ITK = target: T1, ITK (Homo sapiens, UniProt Q08881); test: Nanosyn in vitro kinase profiling: ITK
T1 sequence (Q08881 1-620): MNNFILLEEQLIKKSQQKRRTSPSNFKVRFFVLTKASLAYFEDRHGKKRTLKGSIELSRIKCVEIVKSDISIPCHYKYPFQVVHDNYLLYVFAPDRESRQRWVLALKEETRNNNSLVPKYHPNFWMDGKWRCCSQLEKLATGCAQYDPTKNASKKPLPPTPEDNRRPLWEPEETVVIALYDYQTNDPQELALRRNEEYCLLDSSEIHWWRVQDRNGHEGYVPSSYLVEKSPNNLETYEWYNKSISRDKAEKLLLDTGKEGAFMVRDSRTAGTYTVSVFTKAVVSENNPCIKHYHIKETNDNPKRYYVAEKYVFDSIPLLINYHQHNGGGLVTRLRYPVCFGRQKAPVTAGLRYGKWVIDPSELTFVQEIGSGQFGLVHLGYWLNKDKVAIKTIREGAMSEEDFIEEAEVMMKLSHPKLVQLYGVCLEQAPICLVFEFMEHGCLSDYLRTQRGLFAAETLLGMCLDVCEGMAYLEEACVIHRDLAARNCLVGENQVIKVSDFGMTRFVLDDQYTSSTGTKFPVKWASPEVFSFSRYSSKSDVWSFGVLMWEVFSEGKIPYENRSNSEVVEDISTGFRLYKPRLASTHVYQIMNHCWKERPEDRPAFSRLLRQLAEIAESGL
Method: (§1) This was confirmed by in vitro profiling against a panel of kinases, with compound 2 only showing potent inhibition of EGFR and Ab1 (Table 2).
(§2) In vitro Kinome Screen. In vitro profiling of compound 2 at 100 nM was conducted by Nanosyn.

PDK1 = target: T2, PDK1 (Homo sapiens, UniProt O15530); test: Nanosyn in vitro kinase profiling: PDK1
T2 sequence (O15530 1-556): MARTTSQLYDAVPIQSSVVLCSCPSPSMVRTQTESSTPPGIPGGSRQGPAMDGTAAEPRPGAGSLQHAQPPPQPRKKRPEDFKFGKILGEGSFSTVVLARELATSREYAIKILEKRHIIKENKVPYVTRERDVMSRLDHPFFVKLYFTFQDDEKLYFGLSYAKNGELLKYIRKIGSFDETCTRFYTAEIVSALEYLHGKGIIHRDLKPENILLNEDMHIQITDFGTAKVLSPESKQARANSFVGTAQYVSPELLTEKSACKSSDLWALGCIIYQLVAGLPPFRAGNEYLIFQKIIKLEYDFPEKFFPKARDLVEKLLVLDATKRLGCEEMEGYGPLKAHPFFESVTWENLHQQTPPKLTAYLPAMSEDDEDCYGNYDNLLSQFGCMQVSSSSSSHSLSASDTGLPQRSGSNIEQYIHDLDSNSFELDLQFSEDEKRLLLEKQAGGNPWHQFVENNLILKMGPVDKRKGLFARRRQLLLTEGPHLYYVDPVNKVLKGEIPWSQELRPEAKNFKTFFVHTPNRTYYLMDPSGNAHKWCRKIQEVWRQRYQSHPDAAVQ
Method: as §1, §2

AMP-A1B1G1 = AMP-A1B1G1 (Homo sapiens, UniProt Q13131); test: Nanosyn in vitro kinase profiling: AMP-A1B1G1
AMP-A1B1G1, sequence (Q13131 whole entry): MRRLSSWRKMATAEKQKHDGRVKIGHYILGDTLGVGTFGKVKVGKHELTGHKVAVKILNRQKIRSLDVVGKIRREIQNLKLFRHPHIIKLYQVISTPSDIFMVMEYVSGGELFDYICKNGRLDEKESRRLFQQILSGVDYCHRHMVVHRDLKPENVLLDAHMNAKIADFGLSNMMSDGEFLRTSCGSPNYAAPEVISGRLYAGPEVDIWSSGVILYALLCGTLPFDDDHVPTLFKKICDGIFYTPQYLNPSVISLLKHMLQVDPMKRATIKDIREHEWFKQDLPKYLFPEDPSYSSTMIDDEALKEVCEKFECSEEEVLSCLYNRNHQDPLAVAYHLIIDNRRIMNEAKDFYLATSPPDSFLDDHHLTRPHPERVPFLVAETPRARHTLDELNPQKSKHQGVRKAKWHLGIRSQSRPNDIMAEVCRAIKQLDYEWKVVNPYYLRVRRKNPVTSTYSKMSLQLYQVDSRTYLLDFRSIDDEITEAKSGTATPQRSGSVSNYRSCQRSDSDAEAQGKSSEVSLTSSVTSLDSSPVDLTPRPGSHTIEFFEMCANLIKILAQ
AMP-A1B1G1, sequence (Q9Y478 whole entry partner): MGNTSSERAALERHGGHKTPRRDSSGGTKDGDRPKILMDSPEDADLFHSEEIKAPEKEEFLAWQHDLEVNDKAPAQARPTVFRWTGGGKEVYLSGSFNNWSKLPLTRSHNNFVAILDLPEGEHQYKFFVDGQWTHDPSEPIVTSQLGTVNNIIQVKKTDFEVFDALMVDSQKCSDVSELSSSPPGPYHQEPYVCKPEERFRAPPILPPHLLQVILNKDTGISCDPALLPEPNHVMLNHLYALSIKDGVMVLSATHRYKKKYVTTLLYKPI
AMP-A1B1G1, sequence (P54619 whole entry partner): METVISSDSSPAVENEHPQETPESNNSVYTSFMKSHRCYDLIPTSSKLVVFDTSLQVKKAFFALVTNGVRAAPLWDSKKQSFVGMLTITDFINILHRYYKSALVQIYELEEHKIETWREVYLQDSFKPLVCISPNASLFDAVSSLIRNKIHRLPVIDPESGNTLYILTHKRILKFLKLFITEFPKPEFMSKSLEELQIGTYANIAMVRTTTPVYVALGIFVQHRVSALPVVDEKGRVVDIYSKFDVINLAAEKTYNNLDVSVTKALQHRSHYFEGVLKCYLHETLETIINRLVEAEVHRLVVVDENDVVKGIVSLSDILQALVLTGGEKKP
Method: as §1, §2

PYK2 = PYK2 (Homo sapiens, UniProt Q14289); test: Nanosyn in vitro kinase profiling: PYK2
PYK2, sequence (Q14289 whole entry, species assumed): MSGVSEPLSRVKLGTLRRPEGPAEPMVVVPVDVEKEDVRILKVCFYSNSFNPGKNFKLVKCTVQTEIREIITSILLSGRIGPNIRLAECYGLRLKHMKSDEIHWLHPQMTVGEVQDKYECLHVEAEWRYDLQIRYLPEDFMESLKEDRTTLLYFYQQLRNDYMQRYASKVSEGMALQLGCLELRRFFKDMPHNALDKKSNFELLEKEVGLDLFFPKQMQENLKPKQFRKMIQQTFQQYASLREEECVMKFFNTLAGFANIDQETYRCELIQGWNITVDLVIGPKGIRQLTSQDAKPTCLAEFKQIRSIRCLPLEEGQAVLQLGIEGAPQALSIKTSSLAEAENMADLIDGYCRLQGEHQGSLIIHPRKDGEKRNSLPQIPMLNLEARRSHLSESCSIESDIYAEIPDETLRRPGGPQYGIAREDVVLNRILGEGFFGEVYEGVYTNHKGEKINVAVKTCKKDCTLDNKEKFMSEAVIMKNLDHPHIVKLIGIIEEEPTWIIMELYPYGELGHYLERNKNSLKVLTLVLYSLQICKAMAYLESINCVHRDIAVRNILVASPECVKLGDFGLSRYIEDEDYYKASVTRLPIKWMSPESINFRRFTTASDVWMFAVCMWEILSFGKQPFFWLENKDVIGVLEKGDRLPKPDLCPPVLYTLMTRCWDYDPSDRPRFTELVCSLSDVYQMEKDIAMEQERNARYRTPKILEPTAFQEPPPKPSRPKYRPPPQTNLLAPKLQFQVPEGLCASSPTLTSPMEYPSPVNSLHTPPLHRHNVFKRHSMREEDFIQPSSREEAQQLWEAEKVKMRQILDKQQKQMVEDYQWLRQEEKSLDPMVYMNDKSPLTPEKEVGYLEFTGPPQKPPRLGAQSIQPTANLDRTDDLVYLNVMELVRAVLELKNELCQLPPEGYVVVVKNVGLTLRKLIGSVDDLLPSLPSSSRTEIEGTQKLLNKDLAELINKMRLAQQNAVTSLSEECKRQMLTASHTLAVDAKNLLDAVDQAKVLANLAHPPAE
Method: as §1, §2

AURORA-A = target: T3, AURORA-A (Homo sapiens, UniProt O14965); test: Nanosyn in vitro kinase profiling: AURORA-A
T3 sequence (O14965 1-403): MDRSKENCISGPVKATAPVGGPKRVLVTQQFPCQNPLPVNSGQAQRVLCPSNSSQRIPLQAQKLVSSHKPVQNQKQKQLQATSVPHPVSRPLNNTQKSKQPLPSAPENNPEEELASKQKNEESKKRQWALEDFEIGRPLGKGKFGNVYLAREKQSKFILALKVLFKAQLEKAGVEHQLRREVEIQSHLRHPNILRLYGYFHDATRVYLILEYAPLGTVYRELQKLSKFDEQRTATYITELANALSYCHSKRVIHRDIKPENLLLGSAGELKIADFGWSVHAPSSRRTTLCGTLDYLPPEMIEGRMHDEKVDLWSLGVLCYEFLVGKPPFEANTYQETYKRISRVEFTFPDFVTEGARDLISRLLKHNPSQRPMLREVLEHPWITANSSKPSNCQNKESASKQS
Method: as §1, §2

SYK = SYK (Homo sapiens, UniProt P43405); test: Nanosyn in vitro kinase profiling: SYK
Method: as §1, §2

IKK-BETA = target: T4, IKK-BETA (Homo sapiens, UniProt O14920); test: Nanosyn in vitro kinase profiling: IKK-BETA
T4 sequence (O14920 1-756): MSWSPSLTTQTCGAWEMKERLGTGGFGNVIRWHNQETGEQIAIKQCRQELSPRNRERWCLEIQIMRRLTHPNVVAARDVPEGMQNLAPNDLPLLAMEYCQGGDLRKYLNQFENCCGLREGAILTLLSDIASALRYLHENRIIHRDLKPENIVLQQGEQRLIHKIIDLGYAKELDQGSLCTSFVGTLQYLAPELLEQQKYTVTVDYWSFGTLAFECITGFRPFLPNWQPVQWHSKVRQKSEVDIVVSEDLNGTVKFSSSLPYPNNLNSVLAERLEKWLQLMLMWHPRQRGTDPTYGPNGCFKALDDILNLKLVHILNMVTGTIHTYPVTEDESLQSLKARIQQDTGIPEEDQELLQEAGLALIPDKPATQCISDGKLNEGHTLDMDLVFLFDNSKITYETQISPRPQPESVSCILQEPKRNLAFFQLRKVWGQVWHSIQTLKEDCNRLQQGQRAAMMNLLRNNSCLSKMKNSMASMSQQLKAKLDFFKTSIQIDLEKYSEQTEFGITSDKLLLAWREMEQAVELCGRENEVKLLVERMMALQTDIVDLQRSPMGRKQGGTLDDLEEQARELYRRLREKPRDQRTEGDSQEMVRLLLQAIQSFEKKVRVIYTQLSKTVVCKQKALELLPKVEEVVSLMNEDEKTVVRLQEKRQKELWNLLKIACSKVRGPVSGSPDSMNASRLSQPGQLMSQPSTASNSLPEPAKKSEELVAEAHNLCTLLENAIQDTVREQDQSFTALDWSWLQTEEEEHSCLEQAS
Method: as §1, §2

PKC-ALPHA = PKC-ALPHA (Homo sapiens, UniProt P17252); test: Nanosyn in vitro kinase profiling: PKC-ALPHA
Method: as §1, §2

SRC = SRC (Homo sapiens, UniProt P12931); test: Nanosyn in vitro kinase profiling: SRC
SRC, sequence (P12931 whole entry): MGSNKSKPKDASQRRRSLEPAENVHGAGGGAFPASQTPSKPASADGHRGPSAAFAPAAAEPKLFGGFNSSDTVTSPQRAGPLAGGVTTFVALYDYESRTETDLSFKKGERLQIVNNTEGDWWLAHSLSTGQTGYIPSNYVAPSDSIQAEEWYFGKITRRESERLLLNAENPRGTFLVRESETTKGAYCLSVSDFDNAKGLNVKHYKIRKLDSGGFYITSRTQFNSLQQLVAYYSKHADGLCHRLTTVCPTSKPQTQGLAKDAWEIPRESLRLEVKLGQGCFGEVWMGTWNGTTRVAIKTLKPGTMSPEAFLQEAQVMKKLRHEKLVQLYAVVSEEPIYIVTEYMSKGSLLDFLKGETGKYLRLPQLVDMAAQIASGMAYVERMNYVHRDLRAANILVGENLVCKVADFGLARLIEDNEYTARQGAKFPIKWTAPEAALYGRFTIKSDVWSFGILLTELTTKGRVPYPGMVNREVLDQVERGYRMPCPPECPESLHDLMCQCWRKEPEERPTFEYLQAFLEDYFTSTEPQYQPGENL
Method: as §1, §2

| Compound | inhibition at 0.1 µM (ITK; compound at 100 nM) | inhibition at 1 µM (ITK) | inhibition at 0.1 µM (PDK1; compound at 100 nM) | inhibition at 1 µM (PDK1) | inhibition at 0.1 µM (AMP-A1B1G1; compound at 100 nM) | inhibition at 1 µM (AMP-A1B1G1) | inhibition at 0.1 µM (PYK2; compound at 100 nM) | inhibition at 1 µM (PYK2) | inhibition at 0.1 µM (AURORA-A; compound at 100 nM) | inhibition at 1 µM (AURORA-A) | inhibition at 0.1 µM (SYK; compound at 100 nM) | inhibition at 1 µM (SYK) | inhibition at 0.1 µM (IKK-BETA; compound at 100 nM) | inhibition at 1 µM (IKK-BETA) | inhibition at 0.1 µM (PKC-ALPHA; compound at 100 nM) | inhibition at 1 µM (PKC-ALPHA) | inhibition at 0.1 µM (SRC; compound at 100 nM) | inhibition at 1 µM (SRC) |
| --- | --- | --- | --- | --- | --- | --- | --- | --- | --- | --- | --- | --- | --- | --- | --- | --- | --- | --- |
| COc1ccc(-c2ccco2)cc1Nc1ncnc2[nH]nc(-c3ccco3)c12 [compound 2, 3-(furan-2-yl)-N-(5-(furan-2-yl)-2-methoxyphenyl)-1H-pyrazolo[3,4-d]pyrimidin-4-amine] | 1.24% | 13.9% | 4.58% | 18.3% | 2.69% | 12.9% | 3.81% | 20.2% | 9.95% | 47.2% | -2.12% | -6.41% | 1.92% | 2.91% | 1.24% | 5.57% | 63.2% | 88.9% |
| COc1ccc(-c2ccoc2)cc1Nc1ncnc2[nH]cc(-c3cc[nH]n3)c12 [compound 3, N-(5-(furan-3-yl)-2-methoxyphenyl)-5-(1H-pyrazol-3-yl)-7H-pyrrolo[2,3-d]pyrimidin-4-amine] | – | 24% | – | 5% | – | 20% | – | 41% | – | 31% | – | 35% | – | 8% | – | 30% | – | 95% |
